Results published in PubChem BioAssay AID504557 (Johns Hopkins Ion Channel Center, 2011).
Activity calls are given as the source filed them.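 How the source made its calls: active means blocks current through the Kir2.1 potassium channel at one or more tested doses and yields a dose response curve; inactive means no block at any dose, or no dose response.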

The compounds below were run against Inward rectifier potassium channel 2 (Mus musculus) (UniProt P35561) (assay: Kir2.1 thallium flux blockade potency – cell-based, FluxOR, SAR follow-up (AID 504557)). Conditions: Kir2.1 stable cells, FluxOR thallium flux fluorescence.
Sequence of Inward rectifier potassium channel 2 (Mus musculus) (P35561 whole entry, looked up): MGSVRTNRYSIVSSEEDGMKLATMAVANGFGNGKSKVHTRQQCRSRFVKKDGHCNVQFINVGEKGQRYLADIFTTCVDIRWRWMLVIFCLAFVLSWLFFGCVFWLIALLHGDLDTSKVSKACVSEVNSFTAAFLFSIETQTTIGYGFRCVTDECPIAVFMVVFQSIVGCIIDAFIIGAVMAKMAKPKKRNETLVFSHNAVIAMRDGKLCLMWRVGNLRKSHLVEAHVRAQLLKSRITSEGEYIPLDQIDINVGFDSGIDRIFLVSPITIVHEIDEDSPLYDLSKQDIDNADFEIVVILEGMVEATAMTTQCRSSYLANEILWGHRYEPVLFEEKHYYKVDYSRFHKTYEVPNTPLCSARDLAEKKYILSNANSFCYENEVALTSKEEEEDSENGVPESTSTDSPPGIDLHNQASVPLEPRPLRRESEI

`c1ccc(CNc2c3ccccc3nc3ccccc23)cc1` and `Cc1ccc2nc(NCc3ccccc3)[nH]c2c1` are within 1.5-fold of each other in IC50: 13.3 µM for the first, 13.6 µM for the second.

`C[C@H](NS(=O)(=O)c1ccc(Cl)cc1)c1ccccc1` and `C[C@@H](NS(=O)(=O)c1ccc(Cl)cc1)c1ccccc1` are within 1.5-fold of each other in IC50: 11.7 µM for the first, 13.4 µM for the second.

Compared with `C[C@H](NS(=O)(=O)c1ccccc1)c1ccccc1`, `C[C@@H](NS(=O)(=O)c1cccc(Br)c1)c1ccccc1` is 1.5-fold higher in IC50: 4.9 µM for the first, 7.59 µM for the second.

First: Cc1ccc(C)c(OCCCNCc2ccccc2)c1
Second: CC(O)CNCCCOc1cccc(Oc2ccccc2)c1 (configuration not stated)
The IC50 of the first is 2-fold higher: 1.38 µM for the first, 0.679 µM for the second. The second is the more potent here.

First: Cc1ccc(S(=O)(=O)N[C@H](C)c2ccccc2)cc1
Second: Cc1ccc(S(=O)(=O)N[C@@H](C)c2ccccc2)cc1
The IC50 of the first is 1.6-fold lower: 9.46 µM for the first, 15.2 µM for the second.

Compared with `CC(NS(=O)(=O)c1ccc(Br)cc1)c1ccccc1` (configuration not stated), `C[C@@H](NS(=O)(=O)c1ccc(Br)cc1)c1ccccc1` is 3.7-fold higher in IC50: 6.93 µM for the first, 25.3 µM for the second. The first is the more potent here.

Going from `Cc1noc(C)c1COC(=O)CCN1c2ccccc2Sc2ccccc21` to `Cc1ccc2nc(N3CCN(CCO)CC3)nc(-c3ccccc3)c2c1`, the IC50 rises from 7.6 µM to 13.9 µM (1.8-fold).

Going from `C[C@H](NS(C)(=O)=O)c1ccccc1` to `C[C@@H](NS(=O)(=O)c1ccccc1Br)c1ccccc1`, the IC50 rises from 4.74 µM to 13 µM (2.7-fold).

`C[C@H](NS(=O)(=O)c1ccccc1Br)c1ccccc1` and `C[C@H](NS(=O)(=O)c1cccc(Br)c1)c1ccccc1` are within 1.5-fold of each other in IC50: 12.9 µM for the first, 11 µM for the second.

Going from `c1ccc(COc2ccc(OCCCNC3CCCC3)cc2)cc1` to `C[C@H](NS(=O)(=O)c1ccc(Br)cc1)c1ccccc1`, the IC50 falls from 11.8 µM to 7.14 µM (1.7-fold).

First: Cc1ccc(Nc2cc(C)nc3c(C)cccc23)cc1
Second: C[C@H](NS(=O)(=O)c1cc(Cl)cc(Cl)c1O)c1ccccc1
The IC50 of the first is 4.5-fold lower: 7.57 µM for the first, 34.1 µM for the second.

Same assay, conditions: Kir2.1 stable cells, FluxOR thallium flux fluorescence; at 71 µM (top of the series)

`C[C@@H](NS(C)(=O)=O)c1ccccc1` was tested, and the “activity change, negative = inhibition” value was “inactive”.
In the case of `O=C(NCC1CCCCN1)c1cc(OCC(F)(F)F)ccc1OCC(F)(F)F` (configuration not stated), the “activity change, negative = inhibition” value is reported as “inactive”.
For `C[C@@H](NS(=O)(=O)c1cc(Cl)cc(Cl)c1O)c1ccccc1`, the “activity change, negative = inhibition” value was “inactive”.
In the case of `O=S(=O)(c1ccc(F)cc1)N1CCCc2ccccc21`, the “activity change, negative = inhibition” value is reported as “inactive”.
`C[C@@H](NS(=O)(=O)c1ccccc1)c1ccccc1` was tested, and the “activity change, negative = inhibition” value was “inactive”.
